# Assay results published in patent publication US20230295729A1, “METHODS FOR DETECTING AND TREATING PROGESTERONE-RESISTANT INFERTILITY” (The Feinstein Institutes for Medical Research, priority 2022, published 2023).
# Entries after “also recorded” stand apart in the source; their conditions may differ.
# Assays:
# [1] = test system: endometrial stromal cells (eSCs); assay: Decidualization of menstrual effluent-derived eSCs induced by cAMP ± MPA, IGFBP1 and PRL by ELISA; assay type: cell-based, human; conditions: for cAMP-induced decidualization (IGFBP1 and PRL production): quercetin 25 μM 4 hr before cAMP 0.5 mM for 48 hr, vs vehicle; for cAMP+MPA-induced decidualization (IGFBP1 and PRL production): control- and case-eSCs, quercetin 25 μM 4 hr before cAMP 0.5 mM + 0.1 μM MPA for 48 hr; for potentiation of decidualization: comparators tested in the same eSC system as quercetin
# Protocol: Methods: eSCs were isolated from menstrual effluent (ME) obtained from healthy controls and surgically diagnosed endometriosis cases. To induce decidualization, passage 2-3 eSCs DMEM 2% MSC-FBS were treated with dibutryl-cAMP (cAMP, 0.5 mM)±10^-7 M medroxyprogesterone acetate (MPA) for 48 hr. eSCs were pre-treated with vehicle or quercetin (25 μM) 4 hr prior to decidualization. PRL and IGFBP1 protein and mRNA in the culture supernatants and cells, respectively, were assessed by ELISA and RT-qPCR, respectively. Endometrial stromal cells (eSCs) were isolated and grown in DMEM 10% MSC-FBS, PSQ, normocin. Passage 2-3 eSCs were split into 96 well plates or 6-well plates in DMEM 10% MSC-FBS. After overnight culture in DMEM 2% MSC-FBS, decidualization of eSCs was induced after exposure to vehicle or 25 μM quercetin for 4 hrs, followed by 0.5 mM cAMP±0.1 μM MPA for 48 hrs. Decidualization was assessed by measuring IGFBP1 and/or PRL levels in the culture supernatants by ELISA. Progesterone sensitivity was also assessed by measuring progesterone-induced genes. Two sample t tests (unpaired or paired) were used to determine significance. Assessment of progesterone sensitive genes eSCs were treated vehicle or 25 μM quercetin for 4h followed by veh or 0.5 mM cAMP+0.1 uM MPA for 6h; RNA was isolated; and qPCR was performed for the P4 sensitives gene: HAND2, or other P4 target genes.
# Roughly 30-50% of endometriosis patient experience infertility. The cause of endometriosis and its link to infertility is not completely understood. It has been shown that endometrial stromal cells (eSCs) from patients with endometriosis show decreased decidualization, a progesterone-driven process critical for implantation. Quercetin is a flavonoid with anti-inflammatory and immunomodulatory activities. […] In addition, quercetin improves infertility in patients with polycystic ovary syndrome (PCOS). We assessed the effect of quercetin on decidualization and progesterone sensitivity using eSCs. Methods: eSCs were isolated from menstrual effluent (ME) obtained from healthy controls and surgically diagnosed endometriosis cases. To induce decidualization, passage 2-3 eSCs were treated with dibutryl-cAMP (cAMP, 0.25-0.5 mM)±10^-7M medroxyprogesterone acetate (MPA) for 48 hr. eSCs were pre-treated with vehicle or quercetin (25 μM) 4 hr prior to decidualization. PRL and IGFBP1 protein and mRNA in the culture supernatants and cells, respectively, were assessed by ELISA and RT-qPCR, respectively. Progesterone sensitivity was also assessed by measuring progesterone-induced genes, PLZF and IHH. Two sample t tests (unpaired or paired) were used to determine significance.
# [2] = test system: menstrual effluent-derived eSCs (ME-eSCs); assay: MPA-stimulated gene expression in ME-eSCs of endometriosis cases and controls (qPCR, scRNA-seq); assay type: cell-based, human
# Protocol: Methods: Low passage (p2-3) menstrual effluent-derived eSCs (ME-eSCs) obtained from women with confirmed endometriosis or healthy controls were stimulated with vehicle or MPA, a stable P4 analogue. qPCR and single cell RNA-seq (scRNA-seq, n=4 controls and 4 cases) were used to measure P4-induced gene expression and identify dysregulated pathways. Subcellular localization of PR isoforms and the PR chaperone protein, FKBP52, was assessed using immunofluorescent microscopy and western blotting of total, nuclear, and cytoplasmic preparations of ME-eSCs±MPA stimulation.
# [3] = test system: patients with polycystic ovary syndrome (PCOS); conditions: cited from earlier work
# [4] = test system: P4 target genes (HAND2, PLZF, IHH) in endometrial stromal cells; assay: Progesterone (P4) target gene expression in eSCs by qPCR after quercetin pre-treatment; assay type: cell-based, human; conditions: control- and case-eSCs, p<0.05; for HAND2 mRNA expression (P4 target gene): quercetin 25 μM 4 h, then vehicle or 0.5 mM cAMP + 0.1 μM MPA 6 h, qPCR
# Protocol: Endometrial stromal cells (eSCs) were isolated and grown in DMEM 10% MSC-FBS, PSQ, normocin. Passage 2-3 eSCs were split into 96 well plates or 6-well plates in DMEM 10% MSC-FBS. After overnight culture in DMEM 2% MSC-FBS, decidualization of eSCs was induced after exposure to vehicle or 25 μM quercetin for 4 hrs, followed by 0.5 mM cAMP±0.1 μM MPA for 48 hrs. […] Progesterone sensitivity was also assessed by measuring progesterone-induced genes. Two sample t tests (unpaired or paired) were used to determine significance. Assessment of progesterone sensitive genes eSCs were treated vehicle or 25 μM quercetin for 4h followed by veh or 0.5 mM cAMP+0.1 uM MPA for 6h; RNA was isolated; and qPCR was performed for the P4 sensitives gene: HAND2, or other P4 target genes. […] Progesterone sensitivity was also assessed by measuring progesterone-induced genes, PLZF and IHH.
# [5] = test system: endometrial stromal cells; assay: SASP protein expression in endometrial stromal cells by western blotting; assay type: cell-based, human; conditions: quercetin 25 μM vs vehicle, DMEM 2% FBS, 2 days, confluent cells; normalised to GAPDH
# Protocol: FIGS. 4A-4B: Quercetin-treatment of endometrial stromal cells reduces the senescence-associated secretory phenotype (SASP) and the expression SASP proteins. (4A) Treatment of confluent endometrial stromal cells with vehicle (Veh) vs. quercetin (25 μM, Q+) in DMEM 2% FBS for 2 days alters the expression of SASP proteins (or SASPs, IL-1β, TNF-membrane form [TNF-MF], TNF-soluble form [TNF-SF], MMP3, and Lamin B1 [LamB1*] vs. GAPDH [housekeeping protein for normalization]) by endometrial stromal cells, as determined by western blotting. Relative molecular weight markers (MWM) are shown on the left. (4B) Quantification of Veh-treated vs. Q-treated protein bands are shown in 4B. *Note: All proteins are positive SASPs (increased protein expression positively correlates with senescence), except LAMB1, which is lost with the senescence phenotype. Quercetin reduces senescence-associated secretory phenotype or SASP.
# endometrial implants = conditions: rat model of endometriosis; cited from earlier work
# [6] = ME-eSCs from cases vs. controls, qPCR
# [7] = scRNA-seq, n=4 controls and 4 cases
structure (smiles),measurement,setting,value
"CC(=O)O[C@]1(C(C)=O)CC[C@H]2[C@@H]3C[C@H](C)C4=CC(=O)CC[C@]4(C)[C@H]3CC[C@@]21C [MPA, medroxyprogesterone acetate]",potentiation of cAMP-induced decidualization by addition of MPA,"[1]; control-eSCs, 0.1 μM MPA with cAMP, 48 hr",potentiates
same,MPA-stimulated IHH gene expression,[2]; [6],significantly blunted
same,MPA-stimulated PLZF gene expression,[2]; [6],significantly blunted
same,"MPA-induced expression of CEBPD, DKK1, FABP4, MGP, and NNMT",[2]; [7],significantly unregulated in controls only
same,"MPA-induced expression of IGFBP5, MALAT1, DIO2, and KRT17",[2]; [7],significantly downregulated in controls only
"O=c1c(O)c(-c2ccc(O)c(O)c2)oc2cc(O)cc(O)c12 [Quercetin, quercetin]",infertility in PCOS patients,[3],improves
same,HAND2 mRNA expression (P4 target gene),[4],increases
same,HAND2 mRNA expression (P4 target gene),[4]; listed as quercetin,significantly increased over vehicle
same,MPA-induced IHH mRNA expression,[4]; quercetin 25 μM vs vehicle,significantly increased over vehicle
same,MPA-induced PLZF mRNA expression,[4]; quercetin 25 μM vs vehicle,significantly increased over vehicle
same,cAMP-induced decidualization (IGFBP1 and PRL production),"[1]; case-eSCs (endometriosis), p<0.05",significantly enhanced; also recorded: increased
same,cAMP+MPA-induced decidualization (IGFBP1 and PRL production),[1]; p<0.05,increased
same,cAMP+MPA-induced decidualization (IGFBP1 and PRL production),"[1]; p<0.05, listed as quercetin",significantly enhanced; also recorded: further enhances
same,cAMP-induced decidualization (IGFBP1 and PRL production),"[1]; control-eSCs, p<0.02",significantly enhanced; also recorded: increased
same,"senescence-associated secretory phenotype (SASP) and expression of SASP proteins (IL-1β, TNF-MF, TNF-SF, MMP3, Lamin B1)",[5],reduces
same,anti-inflammatory effects,endometrial implants,exerted anti-inflammatory effects
same,growth of endometrial implants,endometrial implants,inhibited
"O=C(O)c1ccccc1O [SA, salicylic acid, reference compound]",potentiation of decidualization,[1],did not potentiate decidualization
"CC(C)Cc1ccc(C(C)C(=O)O)cc1 (stereo not shown) [ibuprofen, reference compound]",potentiation of decidualization,[1],did not potentiate decidualization
